Assay [1] has as its system glycerol kinase (GK) produced by Streptomyces canus A 2408. The experiment in a line: Effect of metal ions and p-chloromercuribenzoate (PCMB). It counts as biochemical. From the text: Effect of metal ions and p-chloromercuribenzoate (PCMB)
Assay [2] shares this test system. The experiment in a line: Substrate specificity for glycerol, dihydroxyacetone phosphate and D-glyceraldehyde (ADP assay). Type of assay: biochemical. The conditions noted are these: for Relative activity: substrate 0.1 M, 0.05 ml, 37° C. for 10 minutes, ADP assayed at 550 nm. The procedure:
(i) specificity for glycerol, dihydroxyacetone phosphate and D-glyceraldehyde: […]
The reaction mixture (0.95 ml) is preincubated at 37° C. for 3 minutes, and the enzyme solution (dissolved in 10 mM phosphate buffer, pH 7.5, 0.05 ml) is added thereto. Then the mixture is incubated at 37° C. for 10 minutes. The reaction is stopped by boiling for 3 minutes. After cooling to 37° C., the amount of ADP is assayed. ADP is assayed by adding an ADP-assay solution (2.0 ml) comprising the following mixture: […]
The reaction mixture is incubated at 37° C. for 15 minutes. Color formation is measured at 550 nm to calculate the substrate specificity.

Assay [3] shares this test system. The experiment in a line: Km value of GK for its substrates. Type of assay: biochemical. The procedure:
The above mixture (1 ml) is preincubated at 37° C. for 5 minutes and GK solution (50 μl) [diluted with GL-buffer (10 mM phosphate buffer containing 10 mM glycerol, pH 7.5)] is added thereto and incubated at 37° C. for 10 minutes.
One unit of GK is defined as liberating […] of glycero-3-phosphate per minute.
Enzyme activity is calculated by the following equation: [formula]

For assay [4], the system named is Escherichia coli GK (E.Co-GK). The conditions noted are these: cited from earlier work.
Assay [5] relates to pigeon heart GK (Pig.-GK). The conditions noted are these: cited from earlier work.
The subject of assay [6] is glycerol kinase (GK) produced by Streptomyces canus A 2408. The experiment in a line: Specific activity for nucleotide. Type of assay: biochemical. The conditions noted are these: for Relative activity (%): 10 mM ATP replaced by the nucleotide, formed glycero-3-phosphate measured. The procedure: (ii) specific activity for nucleotide:
In assay method (i) hereinabove, 10 mM ATP is replaced by CTP, ITP, GTP and UTP and measures the formed glycero-3-phosphate.

“Also recorded” adds a separate entry of the source. Like-named read-outs stand apart in the source and are kept apart here.

For `O=C(O)c1cc[c]([Hg][Cl])cc1` [PCMB, p-chloromercuribenzoate], the “Inhibition of GK activity by PCMB (in words)” value in assay [1] (7.5×10^-6 M of PCMB) is “completely inhibits”. The figures for the “Relative Activity (%) with 1 mM Mg++” value in assay [1] (PCMB 5.0 × 10^-6 M) and in assay [1] (PCMB 7.5 × 10^-6 M) were 13% and 0%, respectively.

Turning to `[Cl-].[Cl-].[Mg+2]` [MgCl2], the “Effect of metal ion on GK activity (in words)” value (shortened to “Effect of metal ion”) in assay [1] is reported as “activated”. Besides, in assay [1] (reagent 1.0 mM), the “Relative Activity (%) with 1 mM Mg++” value was 100% and the “Relative Activity (%) without Mg++” value is recorded as 100%.

For the compound `O=C(CO)CO` [dihydroxyacetone], the Relative activity in assay [2] is on record as 74%. Further, the Km in assay [3] amounted to 660 µM.

For the compound `O=C[C@H](O)CO` [D-glyceraldehyde], the Relative activity in assay [2] was 20%. For the same compound, in assay [3], the Km turned out to be 350 µM.

dihydroxyacetone phosphate: the “activity for dihydroxyacetone phosphate as compared with glycerol” value in assay [4] is on record as “nearly twice”.

Turning to `[Ca+2].[Cl-].[Cl-]` [CaCl2], the “Effect of metal ion” value in assay [1] is given as “inhibited”. In assay [1] (reagent 1.0 mM), the “Relative Activity (%) with 1 mM Mg++” value amounted to 54% and the “Relative Activity (%) without Mg++” value is on record as 0%.

For the compound `[Cl][Mn][Cl]` [MnCl2], in assay [4], the “use as divalent metal ion (in words)” value is given as “can be used”. Further, the “Effect of metal ion” value in assay [1] (listed as Mn++) is on record as “inhibited; also recorded: strongly inhibits”. For the same compound, in assay [1] (reagent 1.0 mM), the “Relative Activity (%) with 1 mM Mg++” value was found to be 14% and the “Relative Activity (%) without Mg++” value was 6%. Moreover, the “use as divalent metal ion (in words)” value in assay [5] was “can be used”.

On to `OCC(O)CO` [glycerol], for which the “substrate specificity (in words)” value in assay [2] (glycerol versus dihydroxyacetone phosphate) is on record as “higher specificity”. Besides, the Relative activity in assay [2] was 100%. For the same compound, the Michaelis constant (Km) in assay [3] is 48 µM.

For the compound `Nc1ccn([C@@H]2O[C@H](COP(=O)(O)OP(=O)(O)OP(=O)(O)O)[C@@H](O)[C@H]2O)c(=O)n1` [CTP], in assay [6], the “nucleotide specificity (in words)” value was “especially high specificity” and the “Relative activity (%)” value came to 92%.

For `O=c1[nH]cnc2c1ncn2[C@@H]1O[C@H](COP(=O)(O)OP(=O)(O)OP(=O)(O)O)[C@@H](O)[C@H]1O` [ITP], the “Relative activity (%)” value in assay [6] came out at 47%.

Consider `Nc1nc2c(ncn2[C@@H]2O[C@H](COP(=O)(O)OP(=O)(O)OP(=O)(O)O)[C@@H](O)[C@H]2O)c(=O)[nH]1` [GTP], for which, in assay [6], the “Relative activity (%)” value came out at 19%.

Turning to `O=c1ccn([C@@H]2O[C@H](COP(=O)(O)OP(=O)(O)OP(=O)(O)O)[C@@H](O)[C@H]2O)c(=O)[nH]1` [UTP], the “Relative activity (%)” value in assay [6] is reported as 18%.

As for `Nc1ncnc2c1ncn2[C@@H]1O[C@H](COP(=O)(O)OP(=O)(O)OP(=O)(O)O)[C@@H](O)[C@H]1O` [ATP], in assay [4], the “nucleotide specificity (in words)” value is recorded as “acts only for ATP”. The Km in assay [3] stood at 200 µM. Also, in assay [6], the “nucleotide specificity (in words)” value was “especially high specificity” and the “Relative activity (%)” value amounted to 100%.

The values are drawn from patent publication US4347323A, “Glycerol kinase from Streptomyces canus” (Toyo Jozo Kabushiki Kaisha, priority 1979, dated 1982).
